# Organism: Rattus norvegicus
# Assay: Open TG-GATES - Regimen: Single
# Assay type: toxicity, organism-based, Sprague-Dawley
# Set-up: regimen Single, gender Male, age 6 weeks
# Settings: in vivo, po, route gavage; for APTT / Bas / Eos / Fbg / Hb / Ht / Lym / MCHC / MCV / Mono / Neu / PT / Plat / RBC / Ret / WBC: tissue Blood; for KIDNEY_L / KIDNEY_R / KIDNEY_TOTAL: tissue Kidney; for LIVER: tissue Liver; for ALP / ALT / AST / BUN / CRE / DBIL / GLC / IP / K / LDH / Na / PL / RALB / TBIL / TC / TG / TP / gamma-GTP: tissue Plasma
# [1] = 1000 mg/kg, 3 h, dose level Middle
# [2] = 1000 mg/kg, 6 h, dose level Middle
# [3] = 1000 mg/kg, 9 h, dose level Middle
# [4] = 1000 mg/kg, 24 h, dose level Middle
# [5] = 2000 mg/kg, 3 h, dose level High
# [6] = 2000 mg/kg, 6 h, dose level High
# [7] = 2000 mg/kg, 9 h, dose level High
# [8] = 2000 mg/kg, 24 h, dose level High
structure (smiles),measurement,setting,value
C#C[C@]1(O)CC[C@H]2[C@@H]3CCC4=Cc5oncc5C[C@]4(C)[C@H]3CC[C@@]21C [DANAZOL],TERMINAL_BW,[1],216 g
same,APTT,[1],22.9 s
same,Bas,[1],0%
same,Eos,[1],1%
same,Fbg,[1],300.8 mg/dL
same,Hb,[1],13.5 g/dL
same,Ht,[1],40.7%
same,Lym,[1],79.2%
same,MCHC,[1],33.1%
same,MCV,[1],63.8 fL
same,Mono,[1],2.4%
same,Neu,[1],16.2%
same,PT,[1],15.7 s
same,Plat,[1],103.2 x10_4/uL
same,RBC,[1],638.4 x10_4/ul
same,Ret,[1],7.1%
same,WBC,[1],83.8 x10_2/uL
same,KIDNEY_L,[1],0.9 g
same,KIDNEY_R,[1],0.9 g
same,KIDNEY_TOTAL,[1],1.8 g
same,LIVER,[1],9.6 g
same,ALP,[1],1405.8 IU/L
same,ALT,[1],41.8 IU/L
same,AST,[1],78 IU/L
same,BUN,[1],14 mg/dL
same,CRE,[1],0.2 mg/dL
same,DBIL,[1],0.002 mg/dL
same,GLC,[1],178.6 mg/dL
same,IP,[1],7.6 mg/dL
same,K,[1],4.1 meq/L
same,LDH,[1],128 IU/L
same,Na,[1],142.4 meq/L
same,PL,[1],129 mg/dL
same,RALB,[1],3 g/dL
same,TBIL,[1],0.022 mg/dL
same,TC,[1],66.6 mg/dL
same,TG,[1],73.4 mg/dL
same,TP,[1],5.5 g/dL
same,gamma-GTP,[1],1.8 IU/L
same,TERMINAL_BW,[2],216.7 g
same,APTT,[2],22.9 s
same,Bas,[2],0%
same,Eos,[2],1%
same,Fbg,[2],306.4 mg/dL
same,Hb,[2],13 g/dL
same,Ht,[2],39.6%
same,Lym,[2],74.2%
same,MCHC,[2],32.8%
same,MCV,[2],62.6 fL
same,Mono,[2],3%
same,Neu,[2],21%
same,PT,[2],16.4 s
same,Plat,[2],107.1 x10_4/uL
same,RBC,[2],633.6 x10_4/ul
same,Ret,[2],7.6%
same,WBC,[2],97.7 x10_2/uL
same,KIDNEY_L,[2],0.9 g
same,KIDNEY_R,[2],1 g
same,KIDNEY_TOTAL,[2],1.9 g
same,LIVER,[2],9.5 g
same,ALP,[2],1279 IU/L
same,ALT,[2],34.4 IU/L
same,AST,[2],70.8 IU/L
same,BUN,[2],10.2 mg/dL
same,CRE,[2],0.1 mg/dL
same,DBIL,[2],0.002 mg/dL
same,GLC,[2],181.8 mg/dL
same,IP,[2],9.3 mg/dL
same,K,[2],4.2 meq/L
same,LDH,[2],139.8 IU/L
same,Na,[2],141.4 meq/L
same,PL,[2],131.6 mg/dL
same,RALB,[2],3 g/dL
same,TBIL,[2],0.026 mg/dL
same,TC,[2],67 mg/dL
same,TG,[2],60.4 mg/dL
same,TP,[2],5.4 g/dL
same,gamma-GTP,[2],1.4 IU/L
same,TERMINAL_BW,[3],208.1 g
same,APTT,[3],21.9 s
same,Bas,[3],0%
same,Eos,[3],0.6%
same,Fbg,[3],302.4 mg/dL
same,Hb,[3],12.9 g/dL
same,Ht,[3],39.7%
same,Lym,[3],77.8%
same,MCHC,[3],32.6%
same,MCV,[3],62.9 fL
same,Mono,[3],2.2%
same,Neu,[3],18.6%
same,PT,[3],16.7 s
same,Plat,[3],114.4 x10_4/uL
same,RBC,[3],630.2 x10_4/ul
same,Ret,[3],7.3%
same,WBC,[3],82.7 x10_2/uL
same,KIDNEY_L,[3],0.9 g
same,KIDNEY_R,[3],1 g
same,KIDNEY_TOTAL,[3],1.9 g
same,LIVER,[3],8.6 g
same,ALP,[3],1309.4 IU/L
same,ALT,[3],33.6 IU/L
same,AST,[3],66.8 IU/L
same,BUN,[3],9.6 mg/dL
same,CRE,[3],0.1 mg/dL
same,DBIL,[3],0.014 mg/dL
same,GLC,[3],178.8 mg/dL
same,IP,[3],9.4 mg/dL
same,K,[3],4.2 meq/L
same,LDH,[3],139 IU/L
same,Na,[3],141.4 meq/L
same,PL,[3],109 mg/dL
same,RALB,[3],3 g/dL
same,TBIL,[3],0.038 mg/dL
same,TC,[3],54.4 mg/dL
same,TG,[3],53 mg/dL
same,TP,[3],5.4 g/dL
same,gamma-GTP,[3],1.6 IU/L
same,TERMINAL_BW,[4],216 g
same,APTT,[4],23.2 s
same,Bas,[4],0%
same,Eos,[4],1%
same,Fbg,[4],290 mg/dL
same,Hb,[4],13.6 g/dL
same,Ht,[4],41%
same,Lym,[4],81.5%
same,MCHC,[4],33.2%
same,MCV,[4],62.3 fL
same,Mono,[4],2.8%
same,Neu,[4],13.5%
same,PT,[4],17.8 s
same,Plat,[4],107.7 x10_4/uL
same,RBC,[4],658.6 x10_4/ul
same,Ret,[4],6.6%
same,WBC,[4],73 x10_2/uL
same,KIDNEY_L,[4],1 g
same,KIDNEY_R,[4],1 g
same,KIDNEY_TOTAL,[4],2 g
same,LIVER,[4],10.5 g
same,ALP,[4],1988.8 IU/L
same,ALT,[4],42.4 IU/L
same,AST,[4],72.2 IU/L
same,BUN,[4],13.8 mg/dL
same,CRE,[4],0.1 mg/dL
same,DBIL,[4],0 mg/dL
same,GLC,[4],184.6 mg/dL
same,IP,[4],6.5 mg/dL
same,K,[4],4.5 meq/L
same,LDH,[4],186 IU/L
same,Na,[4],141 meq/L
same,PL,[4],123 mg/dL
same,RALB,[4],3.1 g/dL
same,TBIL,[4],0.002 mg/dL
same,TC,[4],45.8 mg/dL
same,TG,[4],233.4 mg/dL
same,TP,[4],5.5 g/dL
same,gamma-GTP,[4],1.2 IU/L
same,TERMINAL_BW,[5],217 g
same,APTT,[5],22.7 s
same,Bas,[5],0%
same,Eos,[5],1%
same,Fbg,[5],312.2 mg/dL
same,Hb,[5],13.3 g/dL
same,Ht,[5],40.5%
same,Lym,[5],77.2%
same,MCHC,[5],33%
same,MCV,[5],62.8 fL
same,Mono,[5],3.2%
same,Neu,[5],18.2%
same,PT,[5],15.5 s
same,Plat,[5],120.2 x10_4/uL
same,RBC,[5],644 x10_4/ul
same,Ret,[5],7.3%
same,WBC,[5],73.3 x10_2/uL
same,KIDNEY_L,[5],1 g
same,KIDNEY_R,[5],1 g
same,KIDNEY_TOTAL,[5],2 g
same,LIVER,[5],9.7 g
same,ALP,[5],1466 IU/L
same,ALT,[5],45 IU/L
same,AST,[5],78 IU/L
same,BUN,[5],13.6 mg/dL
same,CRE,[5],0.1 mg/dL
same,DBIL,[5],0 mg/dL
same,GLC,[5],178.2 mg/dL
same,IP,[5],8.5 mg/dL
same,K,[5],4.4 meq/L
same,LDH,[5],162 IU/L
same,Na,[5],141 meq/L
same,PL,[5],138.4 mg/dL
same,RALB,[5],3.1 g/dL
same,TBIL,[5],0.02 mg/dL
same,TC,[5],68.2 mg/dL
same,TG,[5],99.2 mg/dL
same,TP,[5],5.4 g/dL
same,gamma-GTP,[5],1.8 IU/L
same,TERMINAL_BW,[6],217.1 g
same,APTT,[6],23.2 s
same,Bas,[6],0%
same,Eos,[6],1%
same,Fbg,[6],282.6 mg/dL
same,Hb,[6],12.6 g/dL
same,Ht,[6],39%
same,Lym,[6],75.4%
same,MCHC,[6],32.3%
same,MCV,[6],63.5 fL
same,Mono,[6],2.8%
same,Neu,[6],20.6%
same,PT,[6],16.5 s
same,Plat,[6],113.2 x10_4/uL
same,RBC,[6],613 x10_4/ul
same,Ret,[6],8.1%
same,WBC,[6],86.2 x10_2/uL
same,KIDNEY_L,[6],1 g
same,KIDNEY_R,[6],1 g
same,KIDNEY_TOTAL,[6],2 g
same,LIVER,[6],9.6 g
same,ALP,[6],1348.6 IU/L
same,ALT,[6],34.8 IU/L
same,AST,[6],69 IU/L
same,BUN,[6],12.2 mg/dL
same,CRE,[6],0.1 mg/dL
same,DBIL,[6],0 mg/dL
same,GLC,[6],178 mg/dL
same,IP,[6],8.5 mg/dL
same,K,[6],4.5 meq/L
same,LDH,[6],159.6 IU/L
same,Na,[6],140.4 meq/L
same,PL,[6],122.4 mg/dL
same,RALB,[6],2.9 g/dL
same,TBIL,[6],0.028 mg/dL
same,TC,[6],57.6 mg/dL
same,TG,[6],71.6 mg/dL
same,TP,[6],5.3 g/dL
same,gamma-GTP,[6],1.8 IU/L
same,TERMINAL_BW,[7],216.8 g
same,APTT,[7],23.7 s
same,Bas,[7],0%
same,Eos,[7],0.8%
same,Fbg,[7],276.2 mg/dL
same,Hb,[7],12.7 g/dL
same,Ht,[7],39.3%
same,Lym,[7],74.6%
same,MCHC,[7],32.3%
same,MCV,[7],63.9 fL
same,Mono,[7],2.8%
same,Neu,[7],20.8%
same,PT,[7],16.9 s
same,Plat,[7],110.6 x10_4/uL
same,RBC,[7],615.4 x10_4/ul
same,Ret,[7],7.2%
same,WBC,[7],77.3 x10_2/uL
same,KIDNEY_L,[7],1 g
same,KIDNEY_R,[7],1 g
same,KIDNEY_TOTAL,[7],2 g
same,LIVER,[7],9.1 g
same,ALP,[7],1416.2 IU/L
same,ALT,[7],31.6 IU/L
same,AST,[7],73.8 IU/L
same,BUN,[7],11.6 mg/dL
same,CRE,[7],0.2 mg/dL
same,DBIL,[7],0.004 mg/dL
same,GLC,[7],180.8 mg/dL
same,IP,[7],9.2 mg/dL
same,K,[7],4.2 meq/L
same,LDH,[7],128 IU/L
same,Na,[7],141.2 meq/L
same,PL,[7],110.8 mg/dL
same,RALB,[7],2.9 g/dL
same,TBIL,[7],0.032 mg/dL
same,TC,[7],47.2 mg/dL
same,TG,[7],99.4 mg/dL
same,TP,[7],5.2 g/dL
same,gamma-GTP,[7],1.4 IU/L
same,TERMINAL_BW,[8],217.9 g
same,APTT,[8],24.3 s
same,Bas,[8],0%
same,Eos,[8],1%
same,Fbg,[8],286.4 mg/dL
same,Hb,[8],13.3 g/dL
same,Ht,[8],39.8%
same,Lym,[8],74.8%
same,MCHC,[8],33.4%
same,MCV,[8],62.7 fL
same,Mono,[8],2.4%
same,Neu,[8],21.4%
same,PT,[8],18.6 s
same,Plat,[8],127.2 x10_4/uL
same,RBC,[8],635.8 x10_4/ul
same,Ret,[8],7.2%
same,WBC,[8],84.4 x10_2/uL
same,KIDNEY_L,[8],1 g
same,KIDNEY_R,[8],1 g
same,KIDNEY_TOTAL,[8],2 g
same,LIVER,[8],10.5 g
same,ALP,[8],1879.4 IU/L
same,ALT,[8],44.4 IU/L
same,AST,[8],76.8 IU/L
same,BUN,[8],12.2 mg/dL
same,CRE,[8],0.1 mg/dL
same,DBIL,[8],0 mg/dL
same,GLC,[8],186 mg/dL
same,IP,[8],6.9 mg/dL
same,K,[8],4.3 meq/L
same,LDH,[8],219.6 IU/L
same,Na,[8],141.6 meq/L
same,PL,[8],121.2 mg/dL
same,RALB,[8],3.1 g/dL
same,TBIL,[8],0 mg/dL
same,TC,[8],44.6 mg/dL
same,TG,[8],266.6 mg/dL
same,TP,[8],5.6 g/dL
same,gamma-GTP,[8],1.2 IU/L

# Source: ChEMBL document CHEMBL3885861, “Open TG-GATES”
